# Assay results reported in PMC7440915, “Discovery of surrogate agonists for visceral fat Treg cells that modulate metabolic indices in vivo” (eLife, 2020).
# Where no end group is shown, it is not given here.
# System: vTreg53 Treg cells and VAT immunocytes
# Assay: Immunocyte composition of spleen and VAT in HFD-fed mice after vTreg53 Treg transfer and immunization
# Format: in vivo, mouse
# Text: Figure 6. Immunization with Fat1562 expands transferred vTreg53 Treg cells and suppresses HFD-induced VAT inflammation. (A) Scheme of the transfer and immunization protocol. (B) Frequencies of CD45.2^+ cells in Treg cells (n ≥ 7). (C) Frequencies of clonotype^+ cells in transferred CD45.2^+ Treg cells (n ≥ 7). (D) Number of clonotype^+ CD45.2^+ Treg cells in the spleen (n ≥ 7). (E) Number of clonotype^+ CD45.2^+ Treg cells in the VAT (n ≥ 7). (F) Number of total Treg cells in the spleen (n ≥ 7). (G) Number of total Treg cells in VAT (n ≥ 7). (H) Numbers of eosinophils and CD11c^hi inflammatory macrophages in VAT (n ≥ 7). Data are mean ± SD. Data shown are representative of at least two independent experiments. Figure 6—figure supplement 1. Gating strategy. Gating strategy used for detection of VAT Treg cells (top) and, eosinophils or macrophage cells (bottom) by flow cytometry. [drawing 6] TEXT PRINTED IN THE PICTURE: (B) adjuvant: Spl: 0.3 (Gated on Tregs); VAT: 4 (Gated on Tregs) | (B) adjuvant/ Fat1562: Spl: 1.2 (Gated on Tregs); VAT: 53.4 (Gated on Tregs) | (C) adjuvant: Spl: 62.3 (Gated on CD45.2^+ Tregs); VAT: 94.1 (Gated on CD45.2^+ Tregs) | (C) adjuvant/ Fat1562: Spl: 94.1 (Gated on CD45.2^+ Tregs); VAT: 97.8 (Gated on CD45.2^+ Tregs) | (H) adjuvant: 9.3 (Gated on CD45.1^+); 46.3 (Gated on CD45.1^+); 41.3 (Gated on F4/80^+) | (H) adjuvant/ Fat1562: 14.5 (Gated on CD45.1^+); 39.6 (Gated on CD45.1^+); 22.6 (Gated on F4/80^+) DOUBTS OF THE COPYIST ABOUT THIS PICTURE: All values are gate numbers printed inside flow cytometry plots; no measure or unit is printed beside them, so it is uncertain whether they count as results for a substance / 'adjuvant' is the control treatment and 'adjuvant/Fat1562' the test treatment; these are treatment groups, not single compounds / Panel B, adjuvant, VAT: printed as 4, a decimal may be hidden
# Mice were asphyxiated with CO2. Epididymal VAT was excised, minced and digested for 20 min with 1.5 mg/ml collagenase type II (Sigma) in Dulbecco’s Modified Eagle’s Medium (DMEM) supplemented with 2% fetal calf serum (FCS) in a 37°C water bath with shaking. The digested materials were filtered through a sieve and then a 40 µm nylon cell strainer. The stromal vascular fraction was collected after centrifugation at 450 g for 10 min. For surface markers, cells were stained with anti-CD45.1 (A20), -CD45.2 (104), -CD3 (17A2), -CD4 (GK1.5), -TCR Vα2 (B20.1), -CD44 (IM7), -CD62L (MEL-14), -CD45 (30-F11), -CD11b (M1/70), -CD11c (N418), -F4/80 (BM8) mAbs (all from Biolegend), and anti-TCR Vβ4 (KT4), anti-Siglec-F (E50-2440) mAbs (both from BD Biosciences), as detailed in experiment descriptions. Foxp3 staining was performed using the Foxp3/Transcription Factor Staining Buffer Set and anti-Foxp3 (FJK-16s) mAb (both from eBioscience). Cells were acquired with an LSRII flow cytometer (BD Biosciences), an Accuri (BD Biosciences) or Cytoflex (Beckman Coulter). Propidium Iodide was used to distinguish live from dead cells. Assays were performed in biological duplicates or triplicates as described in the figure legends. Data were analyzed using FlowJo.
# To assess early Treg proliferation following peptide stimulation in vivo, 0.4 million Treg cells were sorted from pooled Spl and LNs of 6-8wk-old male CD45.2^+ Tg^+ Foxp3-GFP^KI/y mice by Moflo, labeled by the CellTrace Violet dye (ThermoFisher Scientific), and were i.v.-injected into 6-8wk old male B6.CD45.1^+ mice. The next day, the recipient mice were injected with 200 µg peptides emulsified in CFA (CFA/peptides) s.c. on the lower back. Proliferation of clonotype^+ Tregs in the spleen was determined three days later. To examine the expansion of VAT-Treg cells by peptide immunization, we sorted 0.4 million Treg cells from pooled Spl/LNs of 6-8wk-old male CD45.2^+ Tg^+ Foxp3-GFP^KI/y mice and transferred them i.v. into 6-8wk old male B6.CD45.1^+ mice. […]
sequence,measurement,setting,value
TMYKNPRPMAATG [Fat1562],VAT inflammation,,reduced VAT inflammation
same,expansion of adoptively transferred vTreg53 cells,,significant expansion
same,"clonotype^+ TCR-tg Treg cells, share of entire VAT-Treg pool","VAT, n ≥ 7",almost half
same,frequency of CD11c^hi pro-inflammatory macrophages in VAT,"VAT, n ≥ 7",reducing the frequency of CD11c^hi pro-inflammatory macrophages
same,proportion of eosinophils in VAT,"VAT, n ≥ 7",significantly increased the proportion of eosinophils
same,total number of VAT Treg cells,"VAT, n ≥ 7",significantly elevated
same,"donor-derived cells, share of total Treg pool in spleen","spleen, immunization with Fat1562",less than 2%
same,total number of splenic Treg cells,"spleen, n ≥ 7",did not show a significant increase
